Earlier results in paper PMC8597081, “Diphenylalanine Motif Drives Self‐Assembling in Hybrid PNA‐Peptide Conjugates” (Chemistry (Weinheim an Der Bergstrasse, Germany), 2021).

Conditions: N3-protonated cytosine; N7-protonated guanine
Protocol: Nevertheless, as it can be seen in the 1D spectra (Figure S12) even at 46.9 mM concentration, the absence of a signal at low field arising from the imino proton let speculate that guanine and cytosine are not paired.

| pKa | SMILES |
| --- | --- |
| 4.2 | Nc1cc[nH]c(=O)n1 [cytosine] |
| 1.9–2.2 | Nc1nc2nc[nH]c2c(=O)[nH]1 [guanine] |
